Where “and” joins values, the source holds several entries; their conditions need not be identical. Equal entries are not always repeated. Marks after values point to notes of the source that are not given here.
Experiments:
[1] = Mammalian cell cytotoxicity, MTT assay; conditions: CHO cells
Procedure: (§1) To determine the biocompatibility of W2-FL10 as a potential therapeutic agent, the in vitro cytotoxicity of W2-FL10 against the CHO cell line ([50]) was determined over 48 h by the Drug Discovery and Development Centre at the University of Cape Town, as previously described by Mosmann ([51]). Briefly, W2-FL10 was prepared to a 10 mM stock solution in 100% DMSO and dilutions were prepared in growth media. The CHO cell line density of 10^5 cells/well in 96-well plates and allowed to attach for 24 h. Thereafter, the compound was added to the 96-well plates at various concentrations from 50 µM down to 16 nM and incubated for a further 48 h. At 44 h, MTT was added to the wells, and the plates were read 4 h later at 540 nm on a spectrophotometer. […] Finally, cell inhibition was plotted against concentration and the 50% lethal concentration (LC50) parameter and a minimum lethal concentration (MLC90) were obtained as described for the dose responses against bacterial targets above (equation 1).

[2] = tested on: Chinese hamster ovarian (CHO) cell line; assay: Mammalian cell cytotoxicity, MTT assay; conditions: CHO cells
Procedure: as §1

[3] = tested on: MRSA Xen 30; assay: Membrane depolarization assay, DiSC3(5); assay type: cell-based, Staphylococcus aureus
Procedure: (§2) The membrane depolarization capability (ability to disrupt membrane potential) of the W2-FL10 against S. aureus ATCC 25923, S. aureus RN4220, or MRSA Xen 30 was determined using the voltage-sensitive fluorescent probe, DiSC3(5) ([20]). Briefly, black 96-well plates were prepared with W2-FL10 at 12.5 µg/mL and 25 µg/mL, while 4 and 8 µg/mL of melittin were used as a positive depolarization control, and the plates were air dried as described in the “Antibacterial activity: broth microdilution assay” section. The S. aureus strains were inoculated into MHB and grown to the mid-log phase (OD600 of 0.5–0.6). Cells were harvested by centrifugation at 3,000 rpm for 10 min and resuspended in HEPES buffer (5 mM, pH 7.4, containing 20 mM glucose; 100 mM KCl) to OD600 of 0.05. Thereafter, DiSC3(5) (stock concentration of 400 µM in 100% DMSO) was added to the cell suspension to a final concentration of 0.4 µM, and cells were incubated in the dark at room temperature for 40 min. Cell suspensions (100 µL) were then dispensed into the wells of the black 96-well plate. Sterile broth and the OD-adjusted inoculum with DiSC3(5) were included as a non-fluorescent control, sterile broth with DiSC3(5) was included as a sterility control, and melittin was included as membrane depolarization control. All the tests were performed in triplicate, with independent duplicates. Fluorometric readings of the plate were conducted at 1 min intervals over 12 min (readings began 60 s after cells were added to the plates) using a Tecan Spark at 622 nm excitation wavelength and 670 nm emission wavelength. Statistical comparison of the kinetic trends elicited by the treatment with peptide with the control (cells alone) was done using two-way ANOVA with Bonferroni’s post hoc test.

[4] = tested on: S. aureus ATCC 25923; assay: Membrane depolarization assay, DiSC3(5); assay type: cell-based, Staphylococcus aureus
Procedure: as §2

[5] = tested on: S. aureus RN4220; assay: Membrane depolarization assay, DiSC3(5); assay type: cell-based, Staphylococcus aureus
Procedure: as §2

[6] = tested on: three S. aureus strains; assay: Membrane permeability assay, propidium iodide, summary; assay type: cell-based, Staphylococcus aureus; conditions: discussion
Procedure: The membrane permeability capabilities of the W2-FL10 against the S. aureus strains were determined using PI ([56]). Briefly, black 96-well plates were prepared with W2-FL10 at 6.25, 12.5, and 25 µg/mL, while 4–16 µg/mL of melittin was used as a positive permeability control, and the plates were dried as described in the “Antibacterial activity: broth microdilution assay” section. The S. aureus strains were inoculated into MHB, grown to mid-log phase (OD600 of 0.5–0.6), and diluted to OD600 of 0.3. PI (stock concentration of 1 mg/mL in analytical quality H2O) was added to the cell suspension to a final concentration of 10 µg/mL and cells were incubated in the dark at room temperature for 20 min. Thereafter, 100 µL of OD-adjusted PI cells in the mid-log phase were dispensed into each well. Sterile broth and the OD-adjusted inoculum with PI were included as a non-fluorescent control, while sterile broth with PI was included as a sterility control, and melittin was included as membrane depolarization control. […] Fluorometric readings of the plate were conducted in 4-min intervals over 60 min (readings began ~60 s after cells were added to the plate) using a Tecan Spark at 535 nm excitation wavelength and 617 nm emission wavelength.
The leakage kinetics or PI permeabilization kinetic was assessed using a rate parameter of ΔPI fluorescence per minute. […]

[7] = Lipophilicity, miniaturized shake-flask log D; assay type: physicochemical; conditions: 96-well, 1-octanol/phosphate buffer pH 7.4, shaken 2 h at 25°C, HPLC-UV
Procedure: The lipophilicity of the compound was measured using a miniaturized shake-flask method, in 96-well plate format ([48]). Briefly, equal volumes of 1-octanol and phosphate buffer at pH 7.4 were added to each compound in a deep well plate. The plate was shaken vigorously for 2 h at 25°C. The phases were then carefully separated and transferred to another plate. Analysis was performed by HPLC-UV and log D values were determined from the peak areas of the compound in octanol and buffer phases.

## CCCCCCCC1CC(=O)N[C@H](CC(C)C)C(=O)N[C@@H](CO)C(=O)N[C@@H]([C@@H](C)O)C(=O)N[C@H](Cc2ccccc2)C(=O)N[C@@H](CC(C)C)C(=O)O1 (some centres unmarked) [W2-FL10, serrawettin W2-FL10]
[1]
  CC50 at 48 h: 40 µM and 29 µg/mL
[2]; MTT, 48 h, MLC90
  MLC, minimum lethal concentration: 36.6 (50.0)^e μg/mL
[2]; from MLC and LC50
  ICF (MIC/IC50)^2: 1.6
[3]; 12.5 µg/mL, up to 720 s
  depolarization, in words: appreciable depolarization
[3]; 25 µg/mL
  time at which the DiSC3(5) fluorescent signal doubled: 420 s
[4]; 12.5 µg/mL, up to 720 s (Fig. 4A)
  increase in DiSC3(5) fluorescent signal, in words: negligible
[4]; 25 µg/mL
  time at which the DiSC3(5) fluorescent signal doubled: 660 s
[5]; 12.5 µg/mL, up to 720 s (Fig. 4C)
  increase in DiSC3(5) fluorescent signal, in words: negligible
[5]; 25 µg/mL
  time at which the DiSC3(5) fluorescent signal doubled: 480 s
[6]
  time within which delayed leakage of PI occurred: 30 to 45 min
[7]
  logD at 2 h: 2.5

Source: publication PMC11218446, “Antibacterial efficacy and membrane mechanism of action of the Serratia-derived non-ionic lipopeptide, serrawettin W2-FL10” (Microbiology Spectrum, 2024)
